From patent US20220098191A1 (priority 2019, published 2022)
“And” between values parts separate entries of the source, which are not always exact repeats. Identical values can stand only once.

Key:
Jurkat (Leukaemia) = test: MTT in vitro cytotoxicity, 72 hour incubation; assay type: cell-based; conditions: Homo sapiens, MTT assay, Jurkat cells
Procedure: (§1) The in vitro cytotoxicity of a selection of compounds was determined in a panel of cell lines using the standard MTT assay for a 72 hour incubation period (Table 1).
(§2) Tumor cell lines were maintained in RPMI1640 medium supplemented with 10% heat-inactivated fetal bovine serum, 2 mM L-glutamine and 1 mM sodium pyruvate. 1800 cells per well were seeded in a volume of 180 μl in a 96-well flat bottom polystyrene plate. The cells were allowed to adhere overnight at 37° C. in a CO2 incubator. Ligands were initially formulated in DMSO, and stocks stored at −80° C. They were then further formulated at lox concentration in RPMI1640 medium. 20 μl of diluted samples were added into each treatment well. On each plate, blank wells with no cells, and untreated wells containing cells, were included. Plates were then cultured at 37° C. in a CO2 incubator for 72 hrs. Cytotoxicity was evaluated using a tetrazolium salt-based assay, the MTT assay. After 72 hours, the supernatant was removed from each well and 200 μl of a sterile filtered 500 μg/ml MTT solution in water added to each well. The plates were then incubated at 37° C. in a CO2 incubator for 4 hrs. The supernatant was then removed and the formazan crystals formed solubilized by adding 150 μl of DMSO to each well. The plate was then read on a plate reader at 540 nm, and percentage cell survival calculated as follows: ((mean absorbance treated wells at concentration×−mean absorbance blank wells)÷(mean absorbance untreated wells at concentration×−mean absorbance blank wells))×100. Data were plotted as concentration in nM vs. % cell survival in Microsoft Excel, and IC50 values (concentration where cell survival is reduced by a half) were determined from the graph.

RAJI (Lymphoma) = test: MTT in vitro cytotoxicity, 72 hour incubation; assay type: cell-based; conditions: Homo sapiens, MTT assay, RAJI cells
Procedure: as §1, §2

JVM2 (Lymphoma) = test: MTT in vitro cytotoxicity, 72 hour incubation; assay type: cell-based; conditions: Homo sapiens, JVM-2, MTT assay, JVM2 cells
Procedure: as §1, §2

[1] = Hydrophobicity investigation of free payloads by UPLC (hydrophobicity model); assay type: physicochemical; conditions: for Retention Time (min) seco form / Retention Time (min) spiro form: single runs 1-3 (triplicate), 0.1% TFA water/acetonitrile gradient; for Retention Time (min) seco form, Average: Average of runs, D only in seco form, the others observable as single species
Procedure: Both mobile phases were filtered through 0.22 μm filters and degassed by sonication under argon. Caffeine (Merck, UPLC grade) was employed a standard. Blank solvent samples (i.e., DMSO) were used during sample runs to confirm lack of carryover between injections and to monitor column performance.
UPLC-MS analysis was performed on a Waters Acquity H-Class Ultra-Performance Liquid Chromatography (UPLC) System equipped with an Acquity UPLC BEH, […] 50×2.10 mm (Waters, UK) column and a photodiode array detector […], using Waters MassLynx software. The gradient system used for LC analysis consisted of 0.1% trifluoroacetic acid (TFA) in water as Solvent A, and 0.1% trifluoroacetic acid (TFA) in acetonitrile as Solvent B. TFA was purchased from Merck (UK), and diluted to the required concentration with UPLC grade water and acetonitrile for Solvent A and Solvent B, respectively. TFA was added to ensure acidic conditions throughout the analysis. A flow rate of 0.4 mL/min was used, and the detection wavelength was 254 nm. Mass spectrometry data were collected using a Waters SQ Detector 2 coupled to a Waters Acquity H Class UPLC and a Photo Diode Array Detector (ACQ-PDA). The Waters SQ Detector 2 parameters were set to: Capillary (kV), 3.00; Cone (V), 30; De-solvation Temperature (° C.), 600; Cone flow rate (L/h), 50; De-solvation flow rate (L/h), 600.
Gradient method used: from 95% A/5% B to 20% B over 5 min. Then from 20% B to 60% B over 35 min, followed by from 60% B to 85% B over 10 min. It was further changed from 85% B to 90% B over 5 min and kept for a further 5 min. Finally, from 90% B to 95% B over 2.5 min, and then to 20% B over 2.5 min. 10 μL was split via a zero-dead volume T-piece which passed into the mass spectrometer.
Compounds were provided in powder form and were dissolved in DMSO to achieve 5 mM stock solution. This solution was then diluted to 500 μM with 50% acetonitrile/50% water.
A number of commercially available ADC payloads and internal reference compounds were also incorporated into the analysis, and their structures are presented in Table 3.

Row | Structure (SMILES) | IC50 (Jurkat (Leukaemia)) [nM] | IC50 (RAJI (Lymphoma)) [nM] | IC50 (JVM2 (Lymphoma)) [nM] | Retention Time (min) seco form [1] | Retention Time (min) spiro form [1] | Retention Time (min) seco form, Average [1] [min] | enhanced hydrophilicity (retention time) compared to the unsubstituted compound (B) ([1]; carbamate pro-drug D versus B)
1 | CNS(=O)(=O)c1ccc(C2=CCN3C(=O)c4cc(OC)c(OC[C@@H](O)CC(=O)N5C[C@@H](CCl)c6c5cc(O)c5ccccc65)cc4N=C[C@@H]3C2)cc1 [Compound 88, 4-((S)-3-((S)-4-((S)-1-(Chloromethyl)-5-hydroxy-1,2-dihydro-3H-benzo[e]indol-3-yl)-2-hydroxy-4-oxobutoxy)-2-methoxy-12-oxo-6a,7,10,12-tetrahydrobenzo[e]pyrido[1,2-a][1,4]diazepin-8-yl)-N-methylbenzenesulfonamide] | 0.97 | 0.954 | 0.49 | 18.73 min and 18.70 min | 12.47 min and 12.45 min |  | 
2 | COc1cc2c(cc1OCCCCCC(=O)N1C[C@@H](CCl)c3c1cc(O)c1ccccc31)N=C[C@@H]1CC(c3ccsc3)=CCN1C2=O [Compound 96, (S)-3-((6-((S)-1-(Chloromethyl)-5-hydroxy-1,2-dihydro-3H-benzo[e]indol-3-yl)-6-oxohexyl)oxy)-2-methoxy-8-(thiophen-3-yl)-7,10-dihydrobenzo[e]pyrido[1,2-a][1,4]diazepin-12(6aH)-one] |  | 0.0014 |  | 28.04 min and 28.08 min and 28.06 min | 21.00 min and 21.02 min |  | 
3 | COc1cc2c(cc1OCCCC(=O)N1C[C@@H](CCl)c3c1cc(O)c1ccccc31)N=C[C@@H]1CC(c3ccsc3)=CCN1C2=O [Compound 100, (S)-3-(4-((S)-1-(Chloromethyl)-5-hydroxy-1,2-dihydro-3H-benzo[e]indol-3-yl)-4-oxobutoxy)-2-methoxy-8-(thiophen-3-yl)-7,10-dihydrobenzo[e]pyrido[1,2-a][1,4]diazepin-12(6aH)-one] |  |  | 0.001 | 25.24 min and 25.23 min | 17.94 min and 17.89 min and 17.93 min |  | 
4 | COc1cc2c(cc1OCCOCCC(=O)N1C[C@@H](CCl)c3c1cc(O)c1ccccc31)N=C[C@@H]1CC(c3ccsc3)=CCN1C2=O [Compound 104, (S)-3-(2-(3-((S)-1-(Chloromethyl)-5-hydroxy-1,2-dihydro-3H-benzo[e]indol-3-yl)-3-oxopropoxy)ethoxy)-2-methoxy-8-(thiophen-3-yl)-7,10-dihydrobenzo[e]pyrido[1,2-a][1,4]diazepin-12(6aH)-one] | 0.0095 | 0.0025 | 0.0018 | 24.10 min and 24.09 min | 16.90 min and 16.93 min and 16.91 min |  | 
5 | COc1cc2c(cc1OCCCCCC(=O)N1C[C@@H](CCl)c3c1cc(O)c1ccccc31)N=C[C@@H]1CCCCN1C2=O [A, reference compound] |  |  |  | 22.55 min and 22.56 min | 14.85 min and 14.83 min and 14.84 min |  | 
6 | CNS(=O)(=O)c1ccc(C2=CCN3C(=O)c4cc(OC)c(OC[C@H](O)CC(=O)N5C[C@@H](CCl)c6c5cc(O)c5ccccc65)cc4N=C[C@@H]3C2)cc1 [Compound 92, 4-((S)-3-((R)-4-((S)-1-(Chloromethyl)-5-hydroxy-1,2-dihydro-3H-benzo[e]indol-3-yl)-2-hydroxy-4-oxobutoxy)-2-methoxy-12-oxo-6a,7,10,12-tetrahydrobenzo[e]pyrido[1,2-a][1,4]diazepin-8-yl)-N-methylbenzenesulfonamide] | 0.55 | 0.41 | 0.12 | 18.82 min and 18.84 min | 12.16 min and 12.18 min |  | 
7 | CCc1c2c(nc3ccc(O)cc13)-c1cc3c(c(=O)n1C2)COC(=O)[C@]3(O)CC [SN38, reference compound] |  |  |  |  |  | 7.13 | 
8 | COc1cc2c(cc1OCc1cccc(CC(=O)N3C[C@@H](CCl)c4c3cc(O)c3ccccc43)c1)N=C[C@@H]1CCCCN1C2=O [B, reference compound] |  |  |  | 23.64 min and 23.65 min | 16.10 min and 16.12 min and 16.09 min |  | 
9 | CNS(=O)(=O)c1ccc(C2=CCN3C(=O)c4cc(OC)c(OCCOCCC(=O)N5C[C@@H](CCl)c6c5cc(O)c5ccccc65)cc4N=C[C@@H]3C2)cc1 [Compound 76, 4-((S)-3-(2-(3-((S)-1-(Chloromethyl)-5-hydroxy-1,2-dihydro-3H-benzo[e]indol-3-yl)-3-oxopropoxy)ethoxy)-2-methoxy-12-oxo-6a,7,10,12-tetrahydrobenzo[e]pyrido[1,2-a][1,4]diazepin-8-yl)-N-methylbenzenesulfonamide] | 0.0095 | 0.0172 | 0.0138 | 20.14 min | 13.29 min and 13.28 min |  | 
10 | COc1cc2c(cc1OCCCCCOc1cc3c(cc1OC)C(=O)N1C=C(C)C[C@H]1C=N3)C=C[C@@H]1CC(C)=CN1C2=O [SG3199, reference compound] |  |  |  |  |  | 12.02 | 
11 | CC[C@H](C)C[C@H](OC)[C@@H](C(=O)N1CCC[C@H]1[C@@H](CC(=O)N[C@H](C)[C@@H](O)c1ccccc1)OC)N(C)C(=O)[C@@H](NC(=O)[C@@H](NC)C(C)C)C(C)C [MMAE, reference compound] |  |  |  |  |  | 12.04 | 
12 | COc1cc2c(cc1OCCCCCC(=O)N1C[C@@H](CCl)c3c1cc(O)c1ccccc31)N=C[C@@H]1CCCN1C2=O [C, reference compound] |  |  |  | 20.16 min and 20.15 min | 12.49 min and 12.48 min and 12.45 min |  | 
13 | COc1cc2c(cc1OCc1cc(N)cc(COc3cc4c(cc3OC)C(=O)N3c5ccccc5C[C@H]3CN4)c1)N=C[C@@H]1Cc3ccccc3N1C2=O [DGN549, reference compound] |  |  |  |  |  | 16.60 | 
14 | COc1cc2c(cc1OCc1cccc(CC(=O)N3C[C@@H](CCl)c4c3cc(OC(=O)N3CCN(C)CC3)c3ccccc43)c1)N=C[C@@H]1CCCCN1C2=O [D, reference compound] |  |  |  |  |  | 17.03 | approximately 10 mins
15 | COc1ccc(C2=CN3C(=O)c4cc(OC)c(OCCCOc5cc6c(cc5OC)C(=O)N5C=C(c7ccc(N)cc7)C[C@H]5C=N6)cc4N=C[C@@H]3C2)cc1 [SGD1882, reference compound] |  |  |  |  |  | 12.55 | 
16 | COc1cc2c(cc1OC[C@@H](O)CC(=O)N1C[C@@H](CCl)c3c1cc(O)c1ccccc31)N=C[C@@H]1CC(c3ccsc3)=CCN1C2=O [Compound 108, (S)-3-((S)-4-((S)-1-(Chloromethyl)-5-hydroxy-1,2-dihydro-3H-benzo[e]indol-3-yl)-2-hydroxy-4-oxobutoxy)-2-methoxy-8-(thiophen-3-yl)-7,10-dihydrobenzo[e]pyrido[1,2-a][1,4]diazepin-12(6aH)-one] | 0.014 | 0.01 | 0.0047 | 22.54 min and 22.53 min | 15.71 min and 15.69 min and 15.70 min |  | 
17 | COc1cc2cc(c1Cl)N(C)C(=O)C[C@](C)(OC(=O)[C@@H](C)N(C)C(=O)CCSC)[C@]1(C)O[C@H]1[C@H](C)[C@@H]1C[C@@](O)(NC(=O)O1)[C@H](OC)/C=C/C=C(\C)C2 [DM1, reference compound] |  |  |  |  |  | 21.24 | 
